Test [1] has as its system MCF-7 cell line (human mammary adenocarcinoma). Put plainly: anti-tumour effect in vitro, growth of MCF-7 cell line (bioluminescence assay, intracellular ATP). In kind it is cell-based. The note with it: read-out: Antitumour effect against MCF-7 cell line (IC50 = concentration of compound where 50% inhibition of cell growth could be seen).
Procedure: The anti-tumour effect was studied in vitro as follows:
The amount of living cells after 4 h, 24 h and 48 h incubations were determined by bioluminescence assay (intracellular ATP determination).
inhibition of cell growth could be seen.
Test [2] deals with immature mouse uterus. Briefly: oestrogenic effect, uterus weight of immature mice. In kind it is in vivo. The note with it: 5 mg/kg. How it is done: (§1) The oestrogen-antiestrogen (progesterone) effect of the new compounds in vivo was determined as follows: (1) The oestrogenic properties were determined by administering the new compounds, suspended in sesame oil, subcutaneously to 21 days old immature mice on three consecutive days. The mice were killed on the fourth day and the uterus was weighed. […] The weight correlates with the oestrogenic effect of the compound tested. […] In this case, the ability of the molecules to inhibit oestrogen-induced uterus weight increase was also investigated.

Test [3] deals with estradiol induced weight increase in immature mouse uterus. Briefly: antiestrogenic effect, inhibition of oestrogen-induced uterus weight increase in immature mice. The test is classed as in vivo. To be noted: 5 mg/kg, estradiol 5 μg/kg. As for the experimental part:
as §1

The test system of test [4] is DMBA-induced rat mammary adenocarcinomas. Briefly: antitumour effect in vivo against DMBA-induced rat mammary adenocarcinoma. The note with it: rat, in vivo. How it is done: The anti-tumour effect was investigated in vivo against DMBA-induced rat mammary adenocarcinomas, transplantable mammary and ovarial adenocarcinoma and transplantable prostatic squamous cell carcinoma by the following methods:
Mammary adenocarcinomas were induced by DMBA in 35-40 days old female rats. […] Tumour size and numbers of tumours were evaluated twice a week. Tumour sizes in the control group, treated with solvent, were compared with the test groups.
The size refers to the width×height of the tumour. The growth rate is a difference between sizes compared with that of the first day of the treatment.

For test [5], the system named is immature mouse uterus. Put plainly: progestanic effect, uterus weight of immature mice (alone or with medroxyprogesterone acetate). The test is classed as in vivo. The note with it: positive control.
Procedure: Medroxy-progesterone acetate, which decreases uterus weight, was used as reference.
The progestanic effects of the compounds were measured as described earlier.

Bounds are passed on as bounds.

`ClCC[C@@H](c1ccccc1)[C@H](c1ccccc1)c1ccc(OCCN2CCCC2)cc1` (relative stereo) [Compound 27, 4-chloro-1,2-diphenyl-1-[4-[2-(1-pyrrolidinyl)-ethoxy]phenyl]-butane]: the IC50 in test [1] lay in the range of 1 to 5 µM. The “increase in uterus weight” value in the test on immature mouse uterus [2] was at most 55%. The “inhibition of estradiol-induced uterus weight increase” value in test [3] is listed as “less than 33%”. In test [4], the “amount of new tumours (in words)” value was “the amount of new tumours decreased” and the “growth rate of the tumours (in words)” value is recorded as “the growth rate of the tumours decreased”.

For `ClCC[C@H](c1ccccc1)[C@H](c1ccccc1)c1ccc(OCCN2CCCC2)cc1` (relative stereo) [Compound 28, 4-chloro-1,2-diphenyl-1-[4-[2-(1-pyrrolidinyl)-ethoxy]phenyl]-butane], the IC50 in test [1] lay in the range of 5 to 10 µM. For the same compound, in the test with immature mouse uterus [2], the “increase in uterus weight” value was at most 55%. Besides, the “inhibition of estradiol-induced uterus weight increase” value in test [3] is 68-100%. Moreover, in test [4], the “amount of new tumours (in words)” value was “the amount of new tumours decreased” and the “growth rate of the tumours (in words)” value was “the growth rate of the tumours decreased”.

As to `OCCC/C(=C(/c1ccccc1)c1ccc(O)cc1)c1ccccc1` [6, (E)-isomer], the IC50 in test [1] was 5 to 10 µM.

`CC(=O)OCC/C(=C(\c1ccccc1)c1ccc(OCCN(C)C)cc1)c1ccccc1` [Compound 19]: the IC50 in test [1] was 1 to 5 µM. Besides, the “increase in uterus weight” value in the test with immature mouse uterus [2] is on record as at most 30%. Further, the “inhibition of estradiol-induced uterus weight increase (in words)” value in test [3] is “did not inhibit”. For the same compound, the “growth rate of the tumours (in words)” value in test [4] was “only the growth rate of the tumours was reduced”.

Turning to `CN(C)CCOc1ccc(/C(=C(/CCO)c2ccccc2)c2ccccc2)cc1` [Compound 20, 1,2-diphenyl-1-[4-[2-(N,N-dimethylamino)ethoxy]phenyl]-1-buten-4-ol], in the test on immature mouse uterus [2], the “increase in uterus weight” value was “less than 30%” and the “increase in uterus weight (in words)” value was “statistically significant increase in uterus weight”. In test [3], the “inhibition of estradiol-induced uterus weight increase” value was “less than 33%” and the “inhibition of estradiol-induced uterus weight increase (in words)” value is “inhibited the uterus weight increase in a statistically significant manner”. The “growth rate of the tumours (in words)” value in test [4] is on record as “only the growth rate of the tumours was reduced”.

As to `CCN(CC)CCOc1ccc(/C(=C(/CCCl)c2ccccc2)c2ccccc2)cc1` [Compound 24, 4-chloro-1,2-diphenyl-1-[4-[2-(N,N-diethylamino)ethoxy]phenyl]-1-butene], in test [1], the IC50 fell in the range of 1 to 5 µM. The “increase in uterus weight” value with immature mouse uterus [2] was at most 55%. The “inhibition of estradiol-induced uterus weight increase” value in test [3] is “less than 67%”. Moreover, in test [4], the “growth rate of the tumours (in words)” value was “only the growth rate of the tumours was reduced”.

As for `ClCC/C(=C(\c1ccccc1)c1ccc(OCCN2CCCC2)cc1)c1ccccc1` [Compound 25, 4-chloro-1,2-diphenyl-1-[4-[2-(1-pyrrolidinyl)-ethoxy]phenyl]-1-butene], in test [1], the IC50 is below 5 µM. Also, in the test on immature mouse uterus [2], the “increase in uterus weight” value is at most 55%. Moreover, the “inhibition of estradiol-induced uterus weight increase” value in test [3] was 68-100%. Moreover, in test [4], the “amount of new tumours (in words)” value is on record as “the amount of new tumours decreased” and the “growth rate of the tumours (in words)” value is recorded as “the growth rate of the tumours decreased”.

Take `ClCC/C(=C(/c1ccccc1)c1ccc(OCCN2CCCC2)cc1)c1ccccc1` [Compound 26, 4-chloro-1,2-diphenyl-1-[4-[2-(1-pyrrolidinyl)-ethoxy]phenyl]-1-butene]: the IC50 in test [1] lay within 1 to 5 µM. Moreover, the “increase in uterus weight” value with immature mouse uterus [2] is on record as at most 30%. Also, in test [3], the “inhibition of estradiol-induced uterus weight increase” value is given as “less than 33%”. For the same compound, the “growth rate of the tumours (in words)” value in test [4] is listed as “only the growth rate of the tumours was reduced”.

With `CC(=O)O[C@]1(C(C)=O)CC[C@H]2[C@@H]3C[C@H](C)C4=CC(=O)CC[C@]4(C)[C@H]3CC[C@@]21C` [Medroxyprogesterone acetate, reference compound], the “inhibition in the weight of immature mouse uterus” value with immature mouse uterus [5] is listed as “up to 40%”.

These data come from patent publication US4996225A, “Tri-phenyl alkane derivatives and their oestrogenic, anti-oestrogenic and progestanic uses” (Farmos Group Ltd., priority 1982, dated 1991).
